The record followed here is US4851521A, “Esters of hyaluronic acid” (priority 1985, dated 1989).

Data set [1] deals with dextran-induced aseptic (exudative) phlogosis in rabbit eye. The data set can be described thus: Anti-inflammatory activity: dextran-induced aseptic (exudative) phlogosis in rabbit eye. In kind it is in vivo. Conditions: for eyes without signs of phlogosis out of the total number of eyes treated: 3 drops every 6 hours, 4 treated eyes; for antiinflammatory activity (in words): compared with the corresponding cortisones. On the procedure:
9 hyaluronic esters of cortisone, hydrocortisone and fluorocortisone (9 fluorohydrocortisone) identified by the code names HYC1-HYC9 were tested. Table 1 describes these compounds and gives the percentages of the number of carboxylic groups of HY which are esterified with the above corticosteroids, and where applicable the percentage esterified with simple aliphatic alcohols and those salified with alkaline metals (Na):
Aseptic (exudative) phlogosis was induced in 48 rabbits by intraocular injection of dextran (1% in saline, 0.1 ml). The various products were administered by instillation in the right eye (RE) of the rabbits, while in the left eye (LE) only vehicle was instilled.
The treament (3 drops every 6 hours) was begun immediately after the injection of dextran and was continued for 16 days.
Both eyes of each rabbit were observed through a slit lamp. In particular the following were examined: the state of the conjunctiva and corneal epithelium, the anterior chamber (presence of Tyndall effect), state of the iris and of the posterior segment of the eye. With a Goldmann lens, the state of the back of the eye was examined. The presence of signs of inflammation (hyperemia, exudate, cloudiness of the liquids, etc.) was recorded.
Values are expressed as percentages (number of eyes without signs of phlogosis out of the total number of eyes treated). In brackets are the number of treated eyes.

The nature of data set [2]: Absorption and bioavailability: plasma levels of hydrocortisone in rats. The data set is classed as in vivo, male Sprague-Dawley rats. On the procedure:
Male Sprague-Dawley rats, with a body weight of 250-350 gr were used, obtained from Charles River-Calco (Como), fed ad libitum with water and compound feed in pellets, with the code name of 4RF 21, produced by "Italiana Mangimi", licensee of Charles River.
Hydrocortisone was administered in the form of sodium hemisuccinate salt at the dose of 1.34 mg/kg (corresponding to 1 mg/kg of hydrocortisone base) by general intravenous route and at the dose of 1.34 mg/kg and 2.68 mg/ kg (corresponding to 2 mg/ kg of hydrocortisone base) by subcutaneouos route (the i.v. route was considered in order to determine the pharmacokinetic parameters which serve as a comparison for the evaluation of absorption of any other administration route).
The three HYC derivatives were administered by subcutaneous route at the dose of 6.5 and 13 mg/kg (doses corresponding to about 1 and 2 mg/kg in hydrocortisone base). […] All the compounds were injected at a constant volume of 1 ml/kg.
After administration, 0.3 ml of blood was drawn from each animal by cardiac puncture in the presence of anticoagulant (sodium heparin).
Blood drawing times were as follows: *15 mins, 30 mins, 60 mins, 120 mins, 180 min, 300 mins, 360 mins, 420 mins, 480 mins (*limited to the intraveneous route).
The hydrocortisone was dosed by radioimmunoassay method (Cortisolo Kit, Biodata, cod. 10394) using iodate tracing. […] The linearity of the method comes between 1 and 1000 ng/ml. The observation limit is 1 ng/ml.
The dosage of the cortisolemia in the rat is not influenced either by the base levels or by the circadian rhythms of this hormone, as the metabolic pattern of the endogenous glucocorticoid hormones in the rat, leads to the production of corticosterone and not cortisol (see E. L. Green: Biology of the laboratory mouse.)
In Table 3 are reported the results of the average plasma levels of hydrocortisone, after i.v. and s.c. injection (1 and 2 mg/kg). […] In Table 4 are reported the pharmacokinetic parameters of cortisol calculated graphically from the plasmatic decline curves. In Table 3 are reported the average levels of cortisol after subcutaneous administration of the three HYC derivatives at doses of 6.5 and 13 mg/kg (corresponding to about 1 and 2 mg/kg in hydrocortisone base). In Table 4 are reported the pharmacokinetic parameters relative to cortisol calculated graphically with the method of residues from the plasma absorption curve of the three HYC products.

[3] abbreviates: 10 days from start of phlogosis.
The mark [4] stands for this setting: 12 days from start of phlogosis.
Setting [5] is: 14 days from start of phlogosis.
Setting [6] is: 16 days from start of phlogosis.

On to `C[C@]12CCC(=O)C=C1CC[C@@H]1[C@@H]2C(=O)C[C@@]2(C)[C@H]1CC[C@]2(O)C(=O)CO` [Cortisone, cortisone, reference compound], for which the “eyes without signs of phlogosis out of the total number of eyes treated” value stood at 0.0% in data set [1] (2 days from start of phlogosis); 0.0% in data set [1] (4 days from start of phlogosis); 0.0% in data set [1] (6 days from start of phlogosis); 0.0% in data set [1] (8 days from start of phlogosis); 25.0% in data set [1] (setting [3]); 50.0% in data set [1] (setting [4]). In addition, the “eyes without signs of phlogosis out of the total number of eyes treated” value in data set [1] (setting [5]) and in data set [1] (setting [6]) was 100.0% in each case.
As for `C[C@]12CCC(=O)C=C1CC[C@H]1[C@@H]3CC[C@](O)(C(=O)CO)[C@@]3(C)C[C@H](O)[C@@]12F` [Fluorocortis., 9 fluorohydrocortisone, reference compound], the “eyes without signs of phlogosis out of the total number of eyes treated” value in data set [1] (2 days from start of phlogosis) is 0.0%; in data set [1] (4 days from start of phlogosis), 0.0%; in data set [1] (6 days from start of phlogosis), 0.0%; in data set [1] (8 days from start of phlogosis), 0.0%; in data set [1] (setting [3]), 25.0%; in data set [1] (setting [4]), 50.0%. The “eyes without signs of phlogosis out of the total number of eyes treated” value in data set [1] (setting [5]) and in data set [1] (setting [6]) was 100.0% in each case.
For the molecule `C[C@]12CCC(=O)C=C1CC[C@@H]1[C@@H]2[C@@H](O)C[C@@]2(C)[C@H]1CC[C@]2(O)C(=O)CO` [Hydrocortisone, hydrocortisone, reference compound], in data set [2] (cortisol plasma kinetics, dose dependence), the “linearity of kinetics (in words)” value is recorded as “linear”. Moreover, the “Cmax (in words)” value in data set [2] (rat, in vivo) is reported as “the same as the i.v. route levels at the same dose”. The Tmax was around 30 min in data set [2] (rat, in vivo, sc) and 30 min in data set [2] (rat, in vivo, sc, 1 mg/kg). This molecule also returned an AUC at 8 h in data set [2] (rat, in vivo, sc, 1 mg/kg) of 192 ng·h/mL. The molecule also had a bioavailability in data set [2] (rat, in vivo, sc, 1 mg/kg) of 70.3%. The half-life in data set [2] (rat, in vivo, sc, 1 mg/kg) was 270 min. For the same molecule, in data set [2] (rat, in vivo, sc, 1 mg/kg), the k el was 4.17e-05 s⁻¹. Moreover, the “eyes without signs of phlogosis out of the total number of eyes treated” value is 0.0% in data set [1] (2 days from start of phlogosis); 0.0% in data set [1] (4 days from start of phlogosis); 0.0% in data set [1] (6 days from start of phlogosis); 25.0% in data set [1] (8 days from start of phlogosis); 25.0% in data set [1] (setting [3]); 50.0% in data set [1] (setting [4]). Further, the “eyes without signs of phlogosis out of the total number of eyes treated” value in data set [1] (setting [5]) and in data set [1] (setting [6]) was 100.0% each time.
For the molecule “(mixed ethanol and cortisone ester (C21) of hyaluronic acid (HY) [HYC4]”, the “eyes without signs of phlogosis out of the total number of eyes treated” value came out at 0.0% in data set [1] (2 days from start of phlogosis); 0.0% in data set [1] (4 days from start of phlogosis); 25.0% in data set [1] (6 days from start of phlogosis); 50.0% in data set [1] (8 days from start of phlogosis); 50.0% in data set [1] (setting [3]); 100.0% in data set [1] (setting [4]). For the same molecule, the “eyes without signs of phlogosis out of the total number of eyes treated” value in data set [1] (setting [5]) and in data set [1] (setting [6]) was 100.0% throughout. Besides, in data set [1], the “antiinflammatory activity (in words)” value is given as “most efficient of these derivatives”.
“(mixed) ethanol and fluorocortisone ester (C21) of hyaluronic acid (HY) [HYC6]”: the “eyes without signs of phlogosis out of the total number of eyes treated” value in data set [1] (2 days from start of phlogosis) came to 0.0%; in data set [1] (4 days from start of phlogosis) it was 0.0%; in data set [1] (6 days from start of phlogosis), 25.0%; in data set [1] (8 days from start of phlogosis) it was 50.0%; in data set [1] (setting [3]), 50.0%; in data set [1] (setting [4]), 100.0%. The “eyes without signs of phlogosis out of the total number of eyes treated” value in data set [1] (setting [5]) and in data set [1] (setting [6]) was 100.0% each time. In addition, the “antiinflammatory activity (in words)” value in data set [1] was “most efficient of these derivatives”.
Consider “(partial and mixed) ethanol and cortisone ester of hyaluronic acid (HY) [HYC7]”, for which the “eyes without signs of phlogosis out of the total number of eyes treated” value in data set [1] (2 days from start of phlogosis) was 0.0%; in data set [1] (4 days from start of phlogosis), 0.0%; in data set [1] (6 days from start of phlogosis), 0.0%; in data set [1] (8 days from start of phlogosis), 25.0%; in data set [1] (setting [3]) it was 50.0%; in data set [1] (setting [4]), 100.0%. Also, the “eyes without signs of phlogosis out of the total number of eyes treated” value in data set [1] (setting [5]) and in data set [1] (setting [6]) was 100.0% throughout.
On to “(partial and mixed) ethanol and fluorocortisone esters (C21) of hyaluronic acid (HY) [HYC9]”, for which the “eyes without signs of phlogosis out of the total number of eyes treated” value in data set [1] (2 days from start of phlogosis) was found to be 0.0%; in data set [1] (4 days from start of phlogosis), 0.0%; in data set [1] (6 days from start of phlogosis), 0.0%; in data set [1] (8 days from start of phlogosis), 25.0%; in data set [1] (setting [3]), 25.0%; in data set [1] (setting [4]) it was 50.0%. The “eyes without signs of phlogosis out of the total number of eyes treated” value in data set [1] (setting [5]) and in data set [1] (setting [6]) was 100.0% each time.
Take “(partial) cortisone ester C21) of hyaluronic acid (HY) [HYC1]”: the “eyes without signs of phlogosis out of the total number of eyes treated” value in data set [1] (2 days from start of phlogosis) is reported as 0.0%; in data set [1] (4 days from start of phlogosis), 0.0%; in data set [1] (6 days from start of phlogosis), 0.0%; in data set [1] (8 days from start of phlogosis), 25.0%; in data set [1] (setting [3]), 50.0%; in data set [1] (setting [4]), 50.0%. Moreover, the “eyes without signs of phlogosis out of the total number of eyes treated” value in data set [1] (setting [5]) and in data set [1] (setting [6]) was 100.0% throughout.
Consider “(partial) fluorocortisone ester (C21) of hyaluronic acid (HY) [HYC3]”, for which the “eyes without signs of phlogosis out of the total number of eyes treated” value in data set [1] (2 days from start of phlogosis) amounted to 0.0%; in data set [1] (4 days from start of phlogosis), 0.0%; in data set [1] (6 days from start of phlogosis) it was 0.0%; in data set [1] (8 days from start of phlogosis), 25.0%; in data set [1] (setting [3]), 25.0%; in data set [1] (setting [4]), 100.0%. Besides, the “eyes without signs of phlogosis out of the total number of eyes treated” value in data set [1] (setting [5]) and in data set [1] (setting [6]) was 100.0% throughout.
